From patent publication US9993494B2, “Compositions and methods for treating fibrotic disease” (eFFECTOR Therapeutics, Inc., priority 2014, dated 2018) come the findings set out here.

Each structure is given as a SMILES string.

The subject of test [1] is normal human lung fibroblasts. The experiment in a line: Western blot of α-smooth muscle actin (α-SMA) in TGFβ-treated fibroblasts. The test is classed as cell-based. The conditions noted are these: fibroblasts treated with TGFβ, 24 hours, western blot. On the procedure:
(§1) Briefly, normal human lung fibroblasts (Lonza #CC-2512; cell passage numbers 2 through 5 were used for all experiments) were seeded (Day 0) and cultured in Dulbecco's modified Eagle medium (DMEM) supplemented with 10% fetal bovine serum (FBS), penicillin, streptomycin and glutamax (Invitrogen) at 37° C. in a humidified incubator with 5% CO2 overnight. On Day 1, cells were harvested, washed with phosphate buffered saline (PBS), and then incubated for 48 hours in fresh serum-free DMEM supplemented with penicillin, streptomycin, and glutamax.
(§2) After this 24 hour incubation, procollagen type 1 levels were measured by collecting culture media, centrifuging to pellet cellular debris, and stored at −80° C. Procollagen Type 1 C-Peptide (PIPC) was quantified using the (PIP) EIA kit (Clontech, Cat. No. MK101) according to manufacturer's instructions. The TGFβ-treated fibroblasts of this example were examined by ribosomal profiling (about 6×10^6 cells/10 cm plate) and western blot analysis (about 1×10^6 cells/well of a 6-well plate).
TGFβ-dependent activation of the PI3K/Akt/mTOR and ERK pathways were also examined by western blot analysis (about 1×10^6 cells/well from a 6-well plate). Briefly, cells were washed with PBS and lysed in 1× cell lysis buffer (Cell Signaling Technology, Inc., Danvers, Mass.) for 15 minutes at 4° C. Lysates were briefly sonicated, clarified by centrifugation for 15 minutes at 14,000 rpm, and then supernatants were collected. Protein concentration in the soluble fraction was determined by BCA protein assay (Thermo Scientific, Rockford, Ill.). Samples of protein (20 μg) were resolved on 4-20% Bis-Tris gradient gel (Invitrogen, Carlsbad, Calif.) and transferred to nitrocellulose membrane. The resulting blots were blocked for 1 hour at room temperature with Odyssey blocking solution (LI-COR) and then incubated with primary antibodies at 4° C. overnight. The following day, each blot was washed three times for 10 minutes in TBST, and then incubated with goat anti-rabbit fluorescent conjugated secondary antibody (IRDye 800 CW at 1:20,000; LI-COR) for 1 hour at room temperature. The blots were washed and scanned, and then specific proteins were detected by using the LI-COR Odyssey infrared imager. The following antibodies were used at 1:1000 dilution: anti-α-actin (Sigma #A2547), anti-phospho-4EBP(Ser65), anti-phospho-rpS6(Ser235/236)(#4858), anti-phospho-ERK1/2(Thr202/Tyr204)(#4370), anti-phospho-p70S6K(Thr421/Ser424)(#9204), anti-phospho-pAKT(Ser473), anti-phospho-MNK(Thr197/202), and anti-β-actin (#4970). Unless otherwise indicated, the antibodies were from Cell Signaling Technology, Inc. (Danvers, Mass.).
as §1, with “(Lonza;” for “(Lonza #CC-2512;”, “CO2 conditions” for “CO2”, “glutamax. On Day 3, cells were harvested, resuspended in fresh serum-free DMEM containing silvestrol (1, 5, 10, 75, 100, 500, or 1000 nM) and 10 ng/ml TGFβ, and cultured for 24 hours. Controls included untreated cells and cells treated with only TGFβ.” for “glutamax.”
(§3) After this 24 hour incubation, procollagen type 1 levels were measured by collecting culture media, centrifuging to pellet cellular debris, and stored at −80° C. Procollagen Type 1 C-Peptide (PIPC) was quantified using the (PIP) EIA kit (Clontech) according to manufacturer's instructions. The TGFβ-treated fibroblasts of this example are examined by ribosomal profiling (about 6×10^6 cells/10 cm plate) and western blot analysis (about 1×10^6 cells/well of a 6-well plate).

Test [2] concerns normal human lung fibroblasts. The test can be described thus: Procollagen Type 1 C-Peptide (PIPC) EIA in culture media of TGFβ-treated fibroblasts. In kind it is cell-based. As to conditions: fibroblasts treated with TGFβ, 24 hours, procollagen ELISA. On the procedure: as §1, §2
as §1, with “(Lonza;” for “(Lonza #CC-2512;”, “CO2 conditions” for “CO2”, “glutamax. On Day 3, cells were harvested, resuspended in fresh serum-free DMEM containing silvestrol (1, 5, 10, 75, 100, 500, or 1000 nM) and 10 ng/ml TGFβ, and cultured for 24 hours. Controls included untreated cells and cells treated with only TGFβ.” for “glutamax.”
as §3
The levels of α-SMA and procollagen type 1, markers of fibroblast transdifferentiation into myofibroblasts and a surrogate for fibrotic disease progression, were measured after a 24 hour incubation of fibroblasts in the presence or absence of TGFβ sieIF4A1 or siCont. The knockdown efficiency was determined by quantitating the eIF4A mRNA level by qPCR (data not shown) and assessing the protein level by western analysis (see FIG. 11).
A general note: In an ELISA, binding on a coated surface is turned into a signal by an enzyme label.

In the case of `CC(C)CCN1c2nc(Nc3cc(F)c(O)c(F)c3)ncc2N(C)C(=O)C1C` (centres unmarked) [BI-D1870, 2-[(3,5-Difluoro-4-hydroxyphenyl)amino]-7,8-dihydro-5,7-dimethyl-8-(3-methylbutyl)-6(5H)-pteridone], in test [1], the “% Renormalization α-SMA” value is recorded as “++ (++ = 30-60%)”. The “% Renormalization Collagen” value in test [2] is “+++ (+++ = >60%)”.

For `O=C(Nc1ccc(Cl)cc1)Nc1ccc2nonc2c1` [BOCPU, 1-(benzo[c][1,2,5]oxadiazol-5-yl)-3-(4-chlorophenyl)urea], the “% Renormalization α-SMA” value in test [1] is recorded as “+++ (+++ = >60%)”.

Take `Nc1nccc2c1ncn2[C@@H]1O[C@H](CO)[C@@H](O)[C@H]1O` [DZA, 3-deaza-adenosine]: the “% Renormalization α-SMA” value in test [1] is “+ (+ = 0-30%)”. Moreover, the “% Renormalization Collagen” value in test [2] was “+ (+ = 0-30%)”.

For the compound `N=C(N)NCCCCCCCN` [GC7, N1-guanyl-1,7-diaminoheptane], in test [1], the “% Renormalization α-SMA” value was “+ (+ = 0-30%)”. In test [2], the “% Renormalization Collagen” value is reported as “+ (+ = 0-30%)”.

Regarding `COC(=O)c1ccc2c(c1)NC(=O)/C2=C(\Nc1ccc(N(C)C(=O)CN2CCN(C)CC2)cc1)c1ccccc1` [Nintedanib], the “% Renormalization α-SMA” value in test [1] is given as “+++ (+++ = >60%)”. Further, the “% Renormalization Collagen” value in test [2] is given as “+++ (+++ = >60%)”.

In the case of `CO[C@H]1C[C@@H]2CC[C@@H](C)[C@@](O)(O2)C(=O)C(=O)N2CCCC[C@H]2C(=O)O[C@H]([C@H](C)C[C@@H]2CC[C@@H](O)[C@H](OC)C2)CC(=O)[C@H](C)/C=C(\C)[C@@H](O)[C@@H](OC)C(=O)[C@H](C)C[C@H](C)/C=C/C=C/C=C/1C` [Rapamycin], the “% Renormalization α-SMA” value in test [1] was “+ (+ = 0-30%)”. Further, in test [2], the “% Renormalization Collagen” value is “++ (++ = 30-60%)”.
